Like-named read-outs stand apart in the source and are kept apart here.
Legend:
[1] = test system: blood cancer cell lines (e.g. HL-60, Jurkat, Raji, Ramos, Daudi, MOLT-4); assay: Cell based assay, cell viability (CellTiter-Glo), blood cancer cell lines; conditions: Homo sapiens
Protocol: (§1) Commercially available bladder cancer, prostate cancer, lung cancer, breast cancer, blood cancer, pancreatic cancer, colorectal cancer, brain cancer, neuroblastoma, melanoma, liver cancer, cervical carcinoma, ovarian cancer, renal cancer, and papilloma cell lines were each treated with trypsin-EDTA and cultured, followed by being seeded in each well of a 96 well plate. After 24 hours of treatment at constant temperature, the respective cells were treated with the candidate compound so that a final concentration became 0 to 2 μM. The treated cells were additionally cultured for 72 hours, and cell viability was measured by using an ATP detection method (CellTiter-Glo® Luminescent Cell Viability Assay, Promega).

[2] = test system: bladder cancer cell lines; assay: Cell based assay, cell viability (CellTiter-Glo), bladder cancer cell lines; conditions: 72 hours treatment, 0 to 2 μM, CellTiter-Glo
Protocol: as §1

[3] = MV4-11, blood cancer cell line MV-4-11, 72 hours, read-out: IC50, MV-4-11
[4] = blood cancer cell line Daudi, 72 hours, read-out: IC50, Daudi
[5] = blood cancer cell line HL-60, 72 hours, read-out: IC50, HL-60
[6] = blood cancer cell line Jurkat, 72 hours, read-out: IC50, Jurkat
[7] = blood cancer cell line MOLT-4, 72 hours, read-out: IC50, MOLT-4
[8] = blood cancer cell line Raji, 72 hours, read-out: IC50, Raji
[9] = blood cancer cell line Ramos (RA 1), 72 hours, read-out: IC50, Ramos (RA 1)
[10] = blood cancer cell line U-937, 72 hours, read-out: IC50, U-937
[11] = 253J cells, read-out: IC50, bladder cancer cell line 253J
[12] = 5637 cells, read-out: IC50, bladder cancer cell line 5637
[13] = Homo sapiens, T-24, T24 cells, read-out: IC50, bladder cancer cell line T24
[14] = Homo sapiens, UMUC3, UM-UC-3 cells, read-out: IC50, bladder cancer cell line UM-UC-3
[15] = Homo sapiens, J82 cells, read-out: IC50, bladder cancer cell line J82
[16] = Homo sapiens, KU-19-19 cells, read-out: IC50, bladder cancer cell line KU-19-19
[17] = MBT-2 cells, read-out: IC50, bladder cancer cell line MBT-2

SMILES | IC50 [1, 3] [nM] | IC50 [1, 4] [nM] | IC50 [1, 5] [nM] | IC50 [1, 6] [nM] | IC50 [1, 7] [nM] | IC50 [1, 8] [nM] | IC50 [1, 9] [nM] | IC50 [1, 10] [nM] | IC50 [2, 11] [nM] | IC50 [2, 12] [nM] | IC50 [2, 13] [nM] | IC50 [2, 14] [nM] | IC50 [2, 15] [nM] | IC50 [2, 16] [nM] | IC50 [2, 17] [nM]
CC(=O)c1c(SCc2ccccc2)n(C(=O)c2ccc(Br)cc2)c2c(Br)ccc(Cl)c2c1=O [Compound 23, 3-acetyl-2-(benzylthio)-8-bromo-1-(4-bromobenzoyl)-5-chloroquinolin-4(1H)-one] | > 2000 | > 2000 | > 2000 | > 2000 | > 2000 | > 2000 | > 2000 | > 2000 | > 2000 | > 2000 | > 2000 | > 2000 | > 2000 | > 2000 | > 2000
CC(=O)c1c(SC(C)C)[nH]c2c(Br)ccc(Cl)c2c1=O [Compound 24, 3-acetyl-8-bromo-5-chloro-2-(isopropylthio)quinolin-4(1H)-one] | > 2000 | > 2000 | > 2000 | > 2000 | > 2000 | > 2000 | > 2000 | > 2000 | > 2000 | > 2000 | > 2000 | > 2000 | > 2000 | > 2000 | > 2000
CC(=O)c1c([S+]([O-])C(C)C)[nH]c2c(Br)ccc(Cl)c2c1=O (centres unmarked) [Compound 25, 3-acetyl-8-bromo-5-chloro-2-(isopropylsulfinyl)quinolin-4(1H)-one] | > 2000 | > 2000 | > 2000 | > 2000 | > 2000 | > 2000 | > 2000 | > 2000 | > 2000 | > 2000 | > 2000 | > 2000 | > 2000 | > 2000 | > 2000
CC(=O)c1c([S+]([O-])C(C)c2ccccc2)[nH]c2c(Br)ccc(Cl)c2c1=O (centres unmarked) [Compound 26, 3-acetyl-8-bromo-5-chloro-2-((1-phenylethyl)sulfinyl)quinolin-4(1H)-one] | > 2000 | > 2000 | > 2000 | 1790 | 1740 | > 2000 | > 2000 | > 2000 | > 2000 | 1600 | > 2000 | – | > 2000 | – | –
CC(=O)c1c(SCc2cccc(C#N)c2)[nH]c2c(Br)ccc(Cl)c2c1=O [Compound 27, 3-(((3-acetyl-8-bromo-5-chloro-4-oxo-1,4-dihydroquinolin-2-yl)thio)methyl)benzonitrile] | > 2000 | > 2000 | > 2000 | > 2000 | > 2000 | > 2000 | > 2000 | > 2000 | > 2000 | > 2000 | > 2000 | > 2000 | > 2000 | > 2000 | > 2000
CC(=O)c1c([S+]([O-])Cc2cccc(C#N)c2)[nH]c2c(Br)ccc(Cl)c2c1=O (centres unmarked) [Compound 28, 3-(((3-acetyl-8-bromo-5-chloro-4-oxo-1,4-dihydroquinolin-2-yl)sulfinyl)methyl)benzonitrile] | 1070 | 1940 | 1060 | 880 | 1180 | 870 | 1490 | 870 | – | 1030 | 820 | – | 1330 | – | –
CC(=O)c1c(SCc2ccc(F)c(Cl)c2)[nH]c2c(Br)ccc(Cl)c2c1=O [Compound 30, 3-acetyl-8-bromo-5-chloro-2-((3-chloro-4-fluorobenzyl)thio)quinolin-4(1H)-one] | > 2000 | > 2000 | > 2000 | > 2000 | > 2000 | > 2000 | > 2000 | > 2000 | > 2000 | > 2000 | > 2000 | > 2000 | > 2000 | > 2000 | > 2000

The next lines start with the values.

IC50 [1, 3] [nM] | IC50 [1, 4] [nM] | IC50 [1, 5] [nM] | IC50 [1, 6] [nM] | IC50 [1, 7] [nM] | IC50 [1, 8] [nM] | IC50 [1, 9] [nM] | IC50 [1, 10] [nM] | IC50 [2, 11] [nM] | IC50 [2, 12] [nM] | IC50 [2, 13] [nM] | IC50 [2, 14] [nM] | IC50 [2, 15] [nM] | IC50 [2, 16] [nM] | IC50 [2, 17] [nM] | SMILES
> 2000 | > 2000 | > 2000 | > 2000 | > 2000 | > 2000 | > 2000 | > 2000 | > 2000 | > 2000 | > 2000 | > 2000 | > 2000 | > 2000 | > 2000 | CC(=O)c1c(S(C)(=O)=O)n(C(=O)c2ccc(Br)cc2)c2c(Br)ccc(Cl)c2c1=O [Compound 21, 3-acetyl-8-bromo-1-(4-bromobenzoyl)-5-chloro-2-(methylsulfonyl)quinolin-4(1H)-one]
> 2000 | > 2000 | > 2000 | > 2000 | > 2000 | > 2000 | > 2000 | > 2000 | > 2000 | > 2000 | > 2000 | > 2000 | > 2000 | > 2000 | > 2000 | CC(=O)c1c([S+](C)[O-])n(Cc2ccc(F)c(Cl)c2)c2c(Br)ccc(Cl)c2c1=O (centres unmarked) [Compound 22, 3-acetyl-8-bromo-5-chloro-1-(3-chloro-4-fluorobenzyl)-2-(methylsulfinyl)quinolin-4(1H)-one]
> 2000 | > 2000 | > 2000 | > 2000 | > 2000 | > 2000 | > 2000 | > 2000 | > 2000 | > 2000 | > 2000 | > 2000 | > 2000 | > 2000 | > 2000 | CC(=O)c1c(SCc2ccc([N+](=O)[O-])cc2)[nH]c2c(Br)ccc(Cl)c2c1=O [Compound 32, 3-acetyl-8-bromo-5-chloro-2-((4-nitrobenzyl)thio)quinolin-4(1H)-one]
> 2000 | > 2000 | > 2000 | > 2000 | > 2000 | > 2000 | > 2000 | > 2000 | > 2000 | > 2000 | > 2000 | > 2000 | > 2000 | > 2000 | > 2000 | CSc1c(C(C)=O)c(=O)c2c(Cl)ccc(Br)c2n1S(C)(=O)=O [Compound 35, 3-acetyl-8-bromo-5-chloro-1-(methylsulfonyl)-2-(methylthio)quinolin-4(1H)-one]
> 2000 | > 2000 | > 2000 | > 2000 | > 2000 | > 2000 | > 2000 | > 2000 | > 2000 | > 2000 | > 2000 | > 2000 | > 2000 | > 2000 | 1280 | CC(=O)c1c([S+](C)[O-])n(S(=O)(=O)C(F)(F)F)c2c(Br)ccc(Cl)c2c1=O (centres unmarked) [Compound 36, 3-acetyl-8-bromo-5-chloro-2-(methylsulfinyl)-1-((trifluoromethyl)sulfonyl)quinolin-4(1H)-one]
> 2000 | > 2000 | > 2000 | > 2000 | > 2000 | > 2000 | > 2000 | > 2000 | > 2000 | > 2000 | > 2000 | > 2000 | > 2000 | > 2000 | > 2000 | CSc1c(C(C)=O)c(=O)c2c(Cl)ccc(Br)c2n1S(=O)(=O)c1ccc(Cl)cc1 [Compound 37, 3-acetyl-8-bromo-5-chloro-1-((4-chlorophenyl)sulfonyl)-2-(methylthio)quinolin-4(1H)-one]
> 2000 | > 2000 | > 2000 | > 2000 | > 2000 | > 2000 | > 2000 | > 2000 | > 2000 | > 2000 | > 2000 | > 2000 | > 2000 | > 2000 | > 2000 | CSc1c(C(C)=O)c(=O)c2c(Cl)ccc(Br)c2n1S(=O)(=O)c1ccc([N+](=O)[O-])cc1 [Compound 38, 3-acetyl-8-bromo-5-chloro-2-(methylthio)-1-((4-nitrophenyl)sulfonyl)quinolin-4(1H)-one]
> 2000 | > 2000 | > 2000 | > 2000 | > 2000 | > 2000 | > 2000 | > 2000 | > 2000 | > 2000 | > 2000 | > 2000 | > 2000 | > 2000 | > 2000 | CCS(=O)(=O)n1c([S+](C)[O-])c(C(C)=O)c(=O)c2c(Cl)ccc(Br)c21 (centres unmarked) [Compound 39, 3-acetyl-8-bromo-5-chloro-1-(ethylsulfonyl)-2-(methylsulfinyl)quinolin-4(1H)-one]
> 2000 | > 2000 | > 2000 | > 2000 | > 2000 | > 2000 | > 2000 | > 2000 | > 2000 | > 2000 | > 2000 | > 2000 | > 2000 | > 2000 | > 2000 | CSc1c(C(C)=O)c(=O)c2c(Cl)ccc(Br)c2n1S(=O)(=O)c1ccc(C(C)(C)C)cc1 [Compound 40, 3-acetyl-8-bromo-1-((4-(tert-butyl)phenyl)sulfonyl)-5-chloro-2-(methylthio)quinolin-4(1H)-one]
> 2000 | > 2000 | > 2000 | > 2000 | > 2000 | > 2000 | > 2000 | > 2000 | > 2000 | > 2000 | > 2000 | > 2000 | > 2000 | > 2000 | > 2000 | CC(=O)c1c(S(C)(=O)=O)n(S(=O)(=O)c2ccc(C(C)(C)C)cc2)c2c(Br)ccc(Cl)c2c1=O [Compound 41, 3-acetyl-8-bromo-1-((4-(tert-butyl)phenyl)sulfonyl)-5-chloro-2-(methylsulfonyl)quinolin-4(1H)-one]
> 2000 | > 2000 | > 2000 | > 2000 | > 2000 | > 2000 | > 2000 | > 2000 | > 2000 | > 2000 | > 2000 | 1890 | > 2000 | > 2000 | > 2000 | CC(=O)c1c([S+](C)[O-])n(S(=O)(=O)c2ccc(C(C)(C)C)cc2)c2c(Br)ccc(Cl)c2c1=O (centres unmarked) [Compound 42, 3-acetyl-8-bromo-1-((4-(tert-butyl)phenyl)sulfonyl)-5-chloro-2-(methylsulfinyl)quinolin-4(1H)-one]

From patent publication US11464770B2, “Anticancer pharmaceutical composition” (NATIONAL CANCER CENTER, priority 2016, dated 2022)
